Experimental data published in the supplement of paper PMC10733146.

Key:
Assay in all cases: viability relative to DMSO control (fraction); higher = less drug effect (more viable cells)
Conditions in all cases: 48 h
[1] = system: primary MCL patient cells (S041)
Method in brief: (§1)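 Using 384-well plates with compounds already plated at five concentrations, one well per concentration, 4 × 10^4 primary mononuclear tumour cells were added per well. Cells were Ficoll-isolated from blood or bone marrow or came from processed lymph node, fresh or cryopreserved. They were kept for 48 h at 37 °C and 5% CO2 in RPMI-1640 supplemented with penicillin/streptomycin, L-glutamine and human serum, and viability was read as CellTiter-Glo luminescence relative to the median of 16 inner DMSO wells.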

[2] = system: primary T-PLL patient cells (S008)
Method in brief: as §1

[3] = system: primary BL patient cells (S005)
Method in brief: as §1

[4] = system: primary FL patient cells (S022)
Method in brief: as §1

[5] = system: primary AML patient cells (S079)
Method in brief: as §1

[6] = system: primary DLBCL patient cells (S082)
Method in brief: as §1

[7] = system: primary MCL patient cells (S068)
Method in brief: as §1

[8] = system: primary MCL patient cells (S053)
Method in brief: as §1

[9] = system: primary AML patient cells (S071)
Method in brief: as §1

[10] = system: primary AML patient cells (S055)
Method in brief: as §1

[11] = system: primary CLL patient cells (S031)
Method in brief: as §1

[12] = system: primary FL patient cells (S087)
Method in brief: as §1

[13] = system: primary AML patient cells (S072)
Method in brief: as §1

[14] = system: primary B-PLL patient cells (S016)
Method in brief: as §1

[15] = system: primary AML patient cells (S056)
Method in brief: as §1

[16] = system: primary MCL patient cells (S063)
Method in brief: as §1

[17] = system: primary AML patient cells (S060)
Method in brief: as §1

[18] = system: primary ALL patient cells (S048)
Method in brief: as §1

[19] = system: primary ALL patient cells (S088)
Method in brief: as §1

[20] = system: primary AML patient cells (S009)
Method in brief: as §1

For `CO[C@H]1C[C@@H]2CC[C@@H](C)[C@@](O)(O2)C(=O)C(=O)N2CCCC[C@H]2C(=O)O[C@H]([C@H](C)C[C@@H]2CC[C@@H](OC(=O)C(C)(CO)CO)[C@H](OC)C2)CC(=O)[C@H](C)/C=C(\C)[C@@H](O)[C@@H](OC)C(=O)[C@H](C)C[C@H](C)/C=C/C=C/C=C/1C` [Temsirolimus], the viability ([1]; 0.032 µM) was 0.853, the viability ([1]; 0.16 µM) was 0.829 and the viability ([1]; 0.8 µM) was 0.858. It also gave a viability ([1]; 4 µM) of 0.848, a viability ([1]; 20 µM) of 0.768 and a viability ([2]; 0.032 µM) of 0.982. It also gave a viability ([2]; 0.16 µM) of 0.958, a viability ([2]; 0.8 µM) of 0.941 and a viability ([2]; 4 µM) of 0.959. The viability ([2]; 20 µM) was 0.878, the viability ([3]; 0.032 µM) was 0.775 and the viability ([3]; 0.16 µM) was 0.707. It also gave a viability ([3]; 0.8 µM) of 0.784, a viability ([3]; 4 µM) of 0.775 and a viability ([3]; 20 µM) of 0.653. For the same compound, the viability ([4]; 0.032 µM) was 0.962, the viability ([4]; 0.16 µM) was 0.821 and the viability ([4]; 0.8 µM) was 0.966. For the same compound, the viability ([4]; 4 µM) was 0.917, the viability ([4]; 20 µM) was 0.569 and the viability ([5]; 0.032 µM) was 0.764. For the same compound, the viability ([5]; 0.16 µM) was 0.771, the viability ([5]; 0.8 µM) was 0.768 and the viability ([5]; 4 µM) was 0.755. It also gave a viability ([5]; 20 µM) of 0.675, a viability ([6]; 0.032 µM) of 0.794 and a viability ([6]; 0.16 µM) of 0.759. The viability ([6]; 0.8 µM) was 0.776, the viability ([6]; 4 µM) was 0.804 and the viability ([6]; 20 µM) was 0.748. The viability ([7]; 0.032 µM) was 0.604, the viability ([7]; 0.16 µM) was 0.614 and the viability ([7]; 0.8 µM) was 0.608. The viability ([7]; 4 µM) was 0.738, the viability ([7]; 20 µM) was 1.01 and the viability ([8]; 0.032 µM) was 0.884. The viability ([8]; 0.16 µM) was 0.879, the viability ([8]; 0.8 µM) was 0.927 and the viability ([8]; 4 µM) was 0.898. The viability ([8]; 20 µM) was 0.755, the viability ([9]; 0.032 µM) was 0.837 and the viability ([9]; 0.16 µM) was 0.761. The viability ([9]; 0.8 µM) was 0.723, the viability ([9]; 4 µM) was 0.646 and the viability ([9]; 20 µM) was 0.407. It also gave a viability ([10]; 0.032 µM) of 0.919, a viability ([10]; 0.16 µM) of 0.959 and a viability ([10]; 0.8 µM) of 0.957. It also gave a viability ([10]; 4 µM) of 0.955, a viability ([10]; 20 µM) of 0.812 and a viability ([11]; 0.032 µM) of 0.795. It also gave a viability ([11]; 0.16 µM) of 0.708, a viability ([11]; 0.8 µM) of 0.8 and a viability ([11]; 4 µM) of 0.831. It also gave a viability ([11]; 20 µM) of 0.701, a viability ([12]; 0.032 µM) of 0.833 and a viability ([12]; 0.16 µM) of 0.813. It also gave a viability ([12]; 0.8 µM) of 0.84, a viability ([12]; 4 µM) of 0.82 and a viability ([12]; 20 µM) of 0.713. It also gave a viability ([13]; 0.032 µM) of 0.733, a viability ([13]; 0.16 µM) of 0.886 and a viability ([13]; 0.8 µM) of 0.704. It also gave a viability ([13]; 4 µM) of 0.728, a viability ([13]; 20 µM) of 0.604 and a viability ([14]; 0.032 µM) of 0.618. For the same compound, the viability ([14]; 0.16 µM) was 0.598, the viability ([14]; 0.8 µM) was 0.653 and the viability ([14]; 4 µM) was 0.614. It also gave a viability ([14]; 20 µM) of 0.561, a viability ([15]; 0.032 µM) of 0.606 and a viability ([15]; 0.16 µM) of 0.789. For the same compound, the viability ([15]; 0.8 µM) was 0.847, the viability ([15]; 4 µM) was 0.735 and the viability ([15]; 20 µM) was 0.425. For the same compound, the viability ([16]; 0.032 µM) was 0.913, the viability ([16]; 0.16 µM) was 0.892 and the viability ([16]; 0.8 µM) was 0.9. The viability ([16]; 4 µM) was 0.946, the viability ([16]; 20 µM) was 0.843 and the viability ([17]; 0.032 µM) was 1.05. It also gave a viability ([17]; 0.16 µM) of 1.04, a viability ([17]; 0.8 µM) of 1.04 and a viability ([17]; 4 µM) of 1.06. For the same compound, the viability ([17]; 20 µM) was 1, the viability ([18]; 0.032 µM) was 0.747 and the viability ([18]; 0.16 µM) was 0.706. For the same compound, the viability ([18]; 0.8 µM) was 0.702, the viability ([18]; 4 µM) was 0.748 and the viability ([18]; 20 µM) was 0.49. The viability ([19]; 0.032 µM) was 0.737, the viability ([19]; 0.16 µM) was 0.688 and the viability ([19]; 0.8 µM) was 0.693. For the same compound, the viability ([19]; 4 µM) was 0.703, the viability ([19]; 20 µM) was 0.576 and the viability ([20]; 0.032 µM) was 0.92. It also gave a viability ([20]; 0.16 µM) of 0.774, a viability ([20]; 0.8 µM) of 0.846 and a viability ([20]; 4 µM) of 0.769. For the same compound, the viability ([20]; 20 µM) was 0.533.
Compound `Nc1nc(=S)c2[nH]cnc2[nH]1` [Thioguanin] has a viability ([1]; 0.024 µM) of 1.02, a viability ([1]; 0.12 µM) of 0.879 and a viability ([1]; 0.6 µM) of 0.681. For the same compound, the viability ([1]; 3 µM) was 0.515, the viability ([1]; 15 µM) was 0.388 and the viability ([2]; 0.024 µM) was 1.02. The viability ([2]; 0.12 µM) was 0.986, the viability ([2]; 0.6 µM) was 0.957 and the viability ([2]; 3 µM) was 0.9. It also gave a viability ([2]; 15 µM) of 0.629, a viability ([3]; 0.024 µM) of 0.938 and a viability ([3]; 0.12 µM) of 0.665. It also gave a viability ([3]; 0.6 µM) of 0.823, a viability ([3]; 3 µM) of 0.673 and a viability ([3]; 15 µM) of 0.261. For the same compound, the viability ([4]; 0.024 µM) was 0.991, the viability ([4]; 0.12 µM) was 0.955 and the viability ([4]; 0.6 µM) was 0.835. The viability ([4]; 3 µM) was 0.622, the viability ([4]; 15 µM) was 0.483 and the viability ([5]; 0.024 µM) was 1.02. For the same compound, the viability ([5]; 0.12 µM) was 0.821, the viability ([5]; 0.6 µM) was 0.575 and the viability ([5]; 3 µM) was 0.453. The viability ([5]; 15 µM) was 0.254, the viability ([6]; 0.024 µM) was 1.01 and the viability ([6]; 0.12 µM) was 0.972. It also gave a viability ([6]; 0.6 µM) of 0.844, a viability ([6]; 3 µM) of 0.602 and a viability ([6]; 15 µM) of 0.457. The viability ([7]; 0.024 µM) was 0.982, the viability ([7]; 0.12 µM) was 0.892 and the viability ([7]; 0.6 µM) was 0.83. For the same compound, the viability ([7]; 3 µM) was 0.6, the viability ([7]; 15 µM) was 0.299 and the viability ([8]; 0.024 µM) was 0.893. For the same compound, the viability ([8]; 0.12 µM) was 0.699, the viability ([8]; 0.6 µM) was 0.45 and the viability ([8]; 3 µM) was 0.25. The viability ([8]; 15 µM) was 0.173, the viability ([9]; 0.024 µM) was 1.02 and the viability ([9]; 0.12 µM) was 0.879. It also gave a viability ([9]; 0.6 µM) of 0.577, a viability ([9]; 3 µM) of 0.403 and a viability ([9]; 15 µM) of 0.228. For the same compound, the viability ([10]; 0.024 µM) was 0.964, the viability ([10]; 0.12 µM) was 0.867 and the viability ([10]; 0.6 µM) was 0.49. It also gave a viability ([10]; 3 µM) of 0.19, a viability ([10]; 15 µM) of 0.114 and a viability ([11]; 0.024 µM) of 1.07. It also gave a viability ([11]; 0.12 µM) of 0.972, a viability ([11]; 0.6 µM) of 0.801 and a viability ([11]; 3 µM) of 0.613. For the same compound, the viability ([11]; 15 µM) was 0.327, the viability ([12]; 0.024 µM) was 0.998 and the viability ([12]; 0.12 µM) was 0.952. The viability ([12]; 0.6 µM) was 0.804, the viability ([12]; 3 µM) was 0.688 and the viability ([12]; 15 µM) was 0.645. It also gave a viability ([13]; 0.024 µM) of 1.02, a viability ([13]; 0.12 µM) of 1.01 and a viability ([13]; 0.6 µM) of 0.768. For the same compound, the viability ([13]; 3 µM) was 0.538, the viability ([13]; 15 µM) was 0.387 and the viability ([14]; 0.024 µM) was 0.919. It also gave a viability ([14]; 0.12 µM) of 0.71, a viability ([14]; 0.6 µM) of 0.403 and a viability ([14]; 3 µM) of 0.23. It also gave a viability ([14]; 15 µM) of 0.212, a viability ([15]; 0.024 µM) of 0.912 and a viability ([15]; 0.12 µM) of 0.897. For the same compound, the viability ([15]; 0.6 µM) was 0.889, the viability ([15]; 3 µM) was 0.339 and the viability ([15]; 15 µM) was 0.127. For the same compound, the viability ([16]; 0.024 µM) was 1.03, the viability ([16]; 0.12 µM) was 0.867 and the viability ([16]; 0.6 µM) was 0.495. The viability ([16]; 3 µM) was 0.192, the viability ([16]; 15 µM) was 0.064 and the viability ([17]; 0.024 µM) was 1.03. For the same compound, the viability ([17]; 0.12 µM) was 0.969, the viability ([17]; 0.6 µM) was 0.697 and the viability ([17]; 3 µM) was 0.643. For the same compound, the viability ([17]; 15 µM) was 0.424, the viability ([18]; 0.024 µM) was 0.949 and the viability ([18]; 0.12 µM) was 0.906. The viability ([18]; 0.6 µM) was 0.664, the viability ([18]; 3 µM) was 0.37 and the viability ([18]; 15 µM) was 0.17. For the same compound, the viability ([19]; 0.024 µM) was 1.03, the viability ([19]; 0.12 µM) was 1.08 and the viability ([19]; 0.6 µM) was 0.904. For the same compound, the viability ([19]; 3 µM) was 0.565, the viability ([19]; 15 µM) was 0.281 and the viability ([20]; 0.024 µM) was 1.14. For the same compound, the viability ([20]; 0.12 µM) was 1.09, the viability ([20]; 0.6 µM) was 1.07 and the viability ([20]; 3 µM) was 0.696. For the same compound, the viability ([20]; 15 µM) was 0.489.
